Laboratory results: US6872727B1, “Polycyclic pyrimidine -2,4(1H,3H)-diones with functionalized alkyl residues at the 1- and/or 3-position(s); methods for their synthesis and pharmaceutical preparation” (Privates Institut fur Biomedizinische Forschung und Beratung, priority 1999, dated 2005)

How the values were obtained:
Format in all cases: biochemical
[1] = target: T1, human matrix metalloproteinase-2 (MMP-2; gelatinase A) (Homo sapiens, UniProt P08253); assay: Inhibition of human matrix metalloproteinase-2 (gelatinase A); conditions: trypsin-activated MMP-2 from human dermal fibroblast culture supernatant; read-out: MMP-2 (50% inhibition)
T1 construct: to prepare the enzymatically active mature form of the enzyme; endogenous in cells; host or cells: human dermal fibroblasts (secreted into culture supernatant)
T1 sequence (P08253 110-660): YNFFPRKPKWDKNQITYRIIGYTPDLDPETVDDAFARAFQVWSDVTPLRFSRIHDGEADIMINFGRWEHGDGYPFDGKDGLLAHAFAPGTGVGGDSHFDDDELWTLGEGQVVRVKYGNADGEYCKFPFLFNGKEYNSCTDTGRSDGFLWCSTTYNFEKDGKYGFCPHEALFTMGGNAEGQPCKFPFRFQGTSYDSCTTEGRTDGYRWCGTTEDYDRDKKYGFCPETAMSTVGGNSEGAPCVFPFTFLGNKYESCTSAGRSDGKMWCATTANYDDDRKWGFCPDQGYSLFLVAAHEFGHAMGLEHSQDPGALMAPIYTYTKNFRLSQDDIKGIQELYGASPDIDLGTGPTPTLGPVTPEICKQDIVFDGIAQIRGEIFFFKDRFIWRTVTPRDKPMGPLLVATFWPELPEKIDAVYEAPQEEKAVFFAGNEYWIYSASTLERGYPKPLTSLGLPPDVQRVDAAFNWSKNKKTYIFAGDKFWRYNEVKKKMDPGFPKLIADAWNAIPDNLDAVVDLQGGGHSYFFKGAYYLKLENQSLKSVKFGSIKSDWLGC
Description: MMP-2 is easily prepared by standard procedures from the culture medium of cultivated human fibroblasts in reasonable quantities, and is therefore readily available. […] A screening system based on the measurement of the proteolytic activity of MMP-2 was developed to analyse the inhibitory effects of the various inhibitors described in Table 1.
To this end, human dermal fibroblasts were obtained and maintained in culture using standard methods. The cell-free culture supernatant containing the secreted pro-MMP-2 was treated with trypsin. The trypsin was inactivated with the specific active-site serine proteinase inhibitor Nα-p-tosyl-L-lysine-chloromethylketone (TLCK), and the active MMP-2 was partially purified by gel filtration on Sepharose 4B. The isolated MMP-2 was identified and characterized by the use of a commercially available immunoassay.
A simple nonradioactive assay was developed to measure MMP-2 activity using gelatin as a substrate that allows both a large number of samples to be analysed in parallel and to generate kinetic data. Partially purified MMP-2 was incubated with a suitable dilution of gelatin under standardized conditions (time, buffer, pH, temperature, inhibitor, additives), and uncleaved gelatin was separated from degradation products by suction filtration through a nitrocellulose filter. High-molecular-weight gelatin is thereby bound to the nitrocellulose filter, and the low-molecular-weight gelatin-derived peptides pass through it. The nitrocellulose-bound gelatin can be stained with Ponceau S or Commassie Brilliant Blue protein stains, and the degree of staining quantified densitometrically using a commercially available electrophoresis gel documentation system supported by dedicated analytical software. The nitrocellulose filtration is conducted using a commercially available dot- or slot-blotting apparatus.
The gelatinase assay described here has been validated by comparison with results obtained with an established collagenase assay using radioactive or fluorescently labeled collagen as substrate.
(§1) The enzymatic cleavage of commercially available synthetic internally quenched fluorigenic peptide substrates such as 7-methylcoumarin-4-yl-acetyl-prolyleucyl-glycyl-leucyl-(dinitrophenyl-L-α,β-diaminopropionyl)-alanyl-arginylamide (Mca-Pro-Leu-Gly-Leu-Dap(Dnp)-Ala-Arg-NH2) at the scissile -Gly-Leu-peptide bond separates the fluorescent Mca group from the dinitrophenol quencher, resulting in a strong linear increase in fluorescence intensity that can be readily measured in a fluorimeter (λexitation328 nm, λemission 393 nm) over the first few minutes of the reaction. The specificity of the assay for matrix metalloproteinases is provided by the type I collagen-derived sequence -Pro-Leu-Gly-Leu- in the synthetic substrate, as well as by the incubation conditions. To test the efficacy of the synthetic collagenase/MMP inhibitors, the residual enzymatic activity remaining after an incubation of enzyme plus different amounts of inhibitor is measured at a fixed enzyme and substrate concentration. For each inhibitor, three test series at different fixed substrate concentrations were carried out. From the time-dependent increase in fluorescence intensity measured, the velocity (v) of the enzymatic activity can be calculated as increase in arbitrary fluorescence intensity units per minute. The inhibition constant Ki is calculated graphically by the method of Dixon (1953) by plotting the reciprocal of the reaction velocity 1/v on the ordinate, and the inhibitor concentration on the abscissa. The x-intercept of the linear plot is defined as minus K1 value.
1984 μl assay buffer (100 mM Tris-HCl pH 7,5, 100 mM NaCl, 10 mM CaCl2, 0,05% Brij 35) • 2 μl inhibitor dissolved in DMSO, or DMSO alone as a solvent control • 4 μl enzyme (MMP-2, MMP-9, or the catalytic domain of MMP-8) • 10 μl Mca-Pro-Leu-Gly-Leu-Dap(Dnp)-Ala-Arg-NH2 in DMSO Method • 1. […]

[2] = target: T2, catalytic domain of human matrix metalloproteinase-8 (MMP-8; neutrophil collagenase) (Homo sapiens, UniProt P22894); assay: Inhibition of catalytic domain of human MMP-8, fluorimetric assay, Dixon plot; conditions: recombinant catalytic domain, Mca-Pro-Leu-Gly-Leu-Dap(Dnp)-Ala-Arg-NH2 substrate
T2 construct: express heterologously only the catalytic domain, rather than the entire MMP-8, in Escherichia coli; made in house; host or cells: Escherichia coli
T2 sequence (P22894 100-262 limits assumed): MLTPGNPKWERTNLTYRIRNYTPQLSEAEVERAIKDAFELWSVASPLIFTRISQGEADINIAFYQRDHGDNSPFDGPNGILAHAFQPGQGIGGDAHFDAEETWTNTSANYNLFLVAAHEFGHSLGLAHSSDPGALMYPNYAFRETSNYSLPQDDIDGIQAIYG
Description: The catalytic domain of MMP-8 was chosen as a further test enzyme because of its high stability and constitutive activity, obviating the need for enzymatic or chemical activation, which is a well-known source of error, e.g. the commonly used organomercurial compounds used to activate pro-MMPs may interfere in subsequent assays or affect the activity of the enzyme, leading to erroneous interpretation of results. The cloning strategy was designed to express heterologously only the catalytic domain, rather than the entire MMP-8, in Escherichia coli. With the so-constructed expressed catalytic domain, we obtained a stable enzymatically active, highly pure enzyme that is well suited for routine investigation of the efficacy of the synthetic inhibitors and provides highly reproducible test results.
The cloning and expression of the recombinant catalytic domain of MMP-8 follows the protocol developed by Schnierer et al. (Schnierer, S., Kleine, T., Gote, T., Hilleman, A., Knäuper, V., and Tschesche, H., 1993, The recombinant catalytic domain of human neutrophil collagenase lacks type I collagen substrate specificity, Biochem. Biophys. Res. Commun. 191, 319-326).
as §1
(§2) 1984 μl assay buffer (100 mM Tris-HCl pH 7,5, 100 mM NaCl, 10 mM CaCl2, 0,05% Brij 35) • 2 μl inhibitor dissolved in DMSO, or DMSO alone as a solvent control • 4 μl enzyme (MMP-2, MMP-9, or the catalytic domain of MMP-8) • 10 μl Mca-Pro-Leu-Gly-Leu-Dap(Dnp)-Ala-Arg-NH2 in DMSO Method • 1. Incubate buffer, enzyme, and inhibitor for 5 min at room temperature, with stirring. • 2. Start the reaction by adding 10 μl substrate in DMSO • 3. Record the increase in fluorescence intensity over 2 min. Confirmation of the Inhibitory Activity by Protein Zymographic Analysis

[3] = target: Clostridium histolyticum collagenase (EC 3.4.24.3); assay: Inhibition of Clostridium histolyticum collagenase, spectrophotometric FALGPA assay; conditions: chromogenic substrate FALGPA; read-out: C. histolyticum (50% inhibition)
Description: The activity of Clostidium histolyticum collagenase may be readily determined by a simple spectrophotometric assay using the synthetic chromogenic peptide substrate N-(3-[2-furyl]acryloyi)-leucine-glycine-proline-alanine (FALGPA; Van Hart, H. E. and Steinbrink, D. R. 1981, Anal. Biochem. 113, 356). The degree of inhibition of the degradation of this chromogenic substrate by the addition of the various test substances described in Table 1 may be easily quantified. The enzyme and substrate are commercially available.

[4] = target: T3, human matrix metalloproteinase-9 (MMP-9; gelatinase B) (Homo sapiens, UniProt P14780); assay: Inhibition of human matrix metalloproteinase-9 (gelatinase B); conditions: trypsin-activated native MMP-9 from human buffy coat; read-out: MMP-9 (50% inhibition)
T3 construct: from tissue; host or cells: human buffy coat (blood leukocytes)
T3 sequence (P14780 107-707 limits assumed): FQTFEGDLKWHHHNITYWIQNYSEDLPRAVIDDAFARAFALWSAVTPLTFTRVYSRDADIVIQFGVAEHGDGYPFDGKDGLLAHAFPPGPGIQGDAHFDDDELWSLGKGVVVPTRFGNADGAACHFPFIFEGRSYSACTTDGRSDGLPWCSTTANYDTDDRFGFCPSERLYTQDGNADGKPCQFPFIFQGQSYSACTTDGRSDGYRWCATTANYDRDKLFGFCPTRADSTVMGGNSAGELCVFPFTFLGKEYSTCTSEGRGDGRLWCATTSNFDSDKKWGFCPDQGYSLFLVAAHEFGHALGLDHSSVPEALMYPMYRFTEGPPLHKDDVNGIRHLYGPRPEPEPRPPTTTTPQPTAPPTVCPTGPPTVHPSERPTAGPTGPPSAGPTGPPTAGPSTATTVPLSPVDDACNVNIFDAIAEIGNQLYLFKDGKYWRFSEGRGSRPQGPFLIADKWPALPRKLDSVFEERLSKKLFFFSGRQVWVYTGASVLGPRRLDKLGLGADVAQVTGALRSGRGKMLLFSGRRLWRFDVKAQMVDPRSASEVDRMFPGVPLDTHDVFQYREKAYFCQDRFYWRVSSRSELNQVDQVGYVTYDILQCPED
Description: Native MMP-9 was reproducibly obtained with reasonable yield and purity from human buffy coat. Buffy coat, to which was added an appropriate volume of 10% (v/v) Triton-X-100 to obtain a final concentration of 0,4% detergent, was shaken on ice for 30 min; then, one volume of twofold-concentrated binding buffer (40 mM Tris-HCl pH 7,5, 10 mM CaCl2, 1 M NaCl, 0,2% (v/v) Triton X-100 was added and the mixture shaken on ice for a further 30 min.
The mixture was then centrifuged for 15 min at 16,000 rpm (30,590×g) in a Kendro SS-34 rotor at 4° C. and the resulting supernatant filtered over glass wool. The filtrate was incubated batchwise with gelatin-agarose equilibrated in binding buffer for 1 h on ice with continuous shaking The MMP-9-bound gelatin-agarose was then loaded into a chromatographic tube and the column washed with at least ten bed volumes of binding buffer, or until no protein was detected by absorbance at 280 nm in the wash buffer. MMP-9 was eluted from the gelatin affinity column by application of two bed volumes of binding buffer containing 5% (v/v) dimethylsulfoxide (DMSO).
The eluate was applied to a gel filtration column of Sephadex G-75 both to exchange buffer and to eliminate small amounts of contaminating MMP-2. The G-75 column was prepared and eluted with Buffer I [20 mM Tris-HCl pH 7,5, 5 mM CaCl2, 100 mM NaCl, 0,1% (v/v) Triton X-100].
The eluted MMP-9 includes the three characterized forms of the enzyme: monomer, homodimer, and heterodimer (complex with lipokalin). The purity of MMP-9 was estimated to be ca. 90%, with the remaining contaminating protein being fibronectin and small amounts of TIMPS.
The latent MMP-9 was activated by a 30-60 min incubation at 37° C. with 1/100 vol trypsin (10 mg ml^−1). The trypsin was subsequently inactivated by addition of the serine proteinase inhibitor phenlymethylsulfonylfluoride (PMSF) or the more specific trypsin inhibitor TLCK.
as §1
as §2, with “Confirmation of the Inhibitory Activity by Protein Zymographic Analysis” left out

IC50 [4] [µM]	Structure (SMILES)	IC50 [1] [µM]	Ki [2] [µM]	IC50 [3] [µM]	MMP-8 (Ki value) [2]
–	CC(S)Cn1c(=O)[nH]c(=O)c2ccccc21 (racemic) [Example 1, (R,S)-1-(2-mercaptopropyl)-chinazolin-2,4(1H,3H)-dione]	23.3	33.3	21	–
–	CC(CS)Cn1c(=O)[nH]c2ccccc2c1=O (racemic) [Example 19, (R,S)-3-[3-(2-methyl)-mercaptopropyl]chinazolin-2,4(1H,3H)-dione]	7.1	3	–	–
–	CC(C)(S)Cn1c(=O)[nH]c(=O)c2ccccc21 [Example 2, 1-(2-mercapto-2-methylpropyl)-chinazolin-2,4(1H,3H)-dione]	143	–	–	negative
–	Cn1c(=O)c2ccccc2n(CCS)c1=O [Example 6, 1-(2-mercaptoethyl)-3-methylchinazolin-2,4(1H,3H)-dione]	97.1	–	13.1	negative
–	CCn1c(=O)c2ccccc2n(CCS)c1=O [Example 8, 3-ethyl-1-(2-mercaptoethyl)-chinazolin-2,4(1H,3H)-dione]	–	–	39.4	negative
43.4	CCn1c(=O)c2ccccc2n(CCCS)c1=O [Example 9, 3-ethyl-1-(3-mercaptoprop-1-yl)-chinazolin-2,4(1H,3H)-dione]	13.9	–	–	–
–	COc1cc2c(=O)n(C)c(=O)n(CCS)c2cc1OC [Example 10, 6,7-dimethoxy-1-(2-mercaptoethyl)-3-methyl-chinazolin-2,4(1H,3H)-dione]	6.3	–	31.5	–
–	O=c1c2ccccc2n(CCS)c(=O)n1Cc1ccccc1 [Example 11, 3-benzyl-1-(2-mercaptoethyl)-chinazolin-2,4(1H,3H)-dione]	–	33.3	22.4	–
–	O=c1[nH]c2ccccc2c(=O)n1CCCCCS [Example 13, 3-(5-mercaptopent-1-yl)-chinazolin-2,4(1H,3H)-dione]	–	20	–	–
71.4	Cn1c(=O)c2ccccc2n(CCCSCC(=O)NO)c1=O [Example 20, N-hydroxy-2-[3-(methyl-2,4-dioxo-3,4-dihydro-2H-chinazolin-1-yl)-propylsulfanyl]acetamide]	–	–	–	–
